In patent publication US20250163057A1, “DCN-1 MODULATING COMPOUNDS AND METHODS OF USE THEREOF” (Cellarity, Inc., priority 2023, published 2025):
Where two headings read alike, the source gives them in different places.

Target: DCN1 (DCUND1) protein PONY domain (Homo sapiens (Human), UniProt Q96GG9)
Assay: TR-FRET assay, DCN1 binding with FAM-labeled probe
How it was run: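 Biotinylated DCN1 PONY domain, labeled with streptavidin-Tb, was competed against a FAM-labeled non-covalent DCN1 inhibitor probe in buffer with TritonX and 200 mM NaCl. Conditions were 5 nM DCN1 with 20 nM FAM-probe, or 0.31 nM DCN1 with 100 nM FAM-plus 800 nM unlabeled probe. The TR-FRET ratio was read at 1, 5 and 24 h (0.1% DMSO).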

[1] = 24 hr after treatment with compound, read-out: TR FRET IC50 24 hr
[2] = TR FRET IC50 1 hr (nM), 1 hr after treatment with compound
[3] = read-out: TR FRET IC50 1 hr, 1 hr after treatment with compound

DCN1 (DCUND1) protein PONY domain, sequence (Q96GG9 60-248): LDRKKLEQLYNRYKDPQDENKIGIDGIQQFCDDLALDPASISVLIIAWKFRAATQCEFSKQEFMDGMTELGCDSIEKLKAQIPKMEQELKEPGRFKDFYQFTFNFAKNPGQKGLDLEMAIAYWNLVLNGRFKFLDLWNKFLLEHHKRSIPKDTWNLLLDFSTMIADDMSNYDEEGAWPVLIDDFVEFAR

Row | Structure (SMILES) | IC50 [1] [nM] | IC50 [2] [nM] | IC50 [3] [nM]
1 | C=C(COC)C(=O)NCc1nn(-c2ccccc2)c2c1[C@H](c1ccc(F)cc1)[C@H](NC(=O)c1cccc(C(F)(F)F)c1)C(=O)N2CC [Compound I-113] | 200 to 1000 | 200 to 1000 | –
2 | CCOc1ccc(C)c(C(=O)N[C@@H]2C(=O)N(CC)c3c(c(C(=O)N4[C@H](C#N)C[C@H]5C[C@H]54)nn3C3CCOCC3)[C@@H]2C2CC2)c1 [Compound I-620] | ≤ 200 | – | ≤ 200
3 | CCN1C(=O)[C@@H](NC(=O)C2CC2C(F)(F)F)[C@@H](C2CC2)c2c(C(=O)N3[C@H](C#N)C[C@H]4C[C@H]43)nn(C3CCOCC3)c21 (stereo partly drawn) [Compound I-523] | 1000 to 3000 | 1000 to 3000 | –
4 | CCN1C(=O)[C@@H](NC(=O)c2c(Cl)cccc2Cl)[C@@H](C2CC2)c2c(C(=O)N3[C@H](C#N)C[C@H]4C[C@H]43)nn(C3CCOCC3)c21 [Compound I-473] | 1000 to 3000 | 1000 to 3000 | –
5 | CCN1C(=O)[C@@H](NC(=O)c2cccc(C(F)(F)F)c2)[C@@H](c2ccc(F)cc2)c2c(CN(C)C(=O)C(F)Cl)nn(-c3ccccc3)c21 (mixture of isomers) [Compound I-145] | 200 to 1000 | 200 to 1000 | –
6 | CCN1C(=O)[C@@H](NC(=O)c2cccc(C(F)(F)F)c2)[C@@H](c2ccc(F)cc2)c2c(CC/C=C\C(=O)O)nn(-c3ccccc3)c21 (racemic) [Compound I-126, rac-(Z)-5-((4R,5R)-7-ethyl-4-(4-fluorophenyl)-6-oxo-1-phenyl-5-(3-(trifluoromethyl)benzamido)-4,5,6,7-tetrahydro-1H-pyrazolo[3,4-b]pyridin-3-yl)pent-2-enoic acid] | 200 to 1000 | 200 to 1000 | –
7 | CCN1C(=O)[C@@H](NC(=O)c2cccc(C(F)(F)F)c2)[C@@H](c2ccc(F)cc2)c2c(CC/C=C/C(=O)O)nn(-c3ccccc3)c21 (racemic) [Compound I-134, rac-(E)-5-((4R,5R)-7-ethyl-4-(4-fluorophenyl)-6-oxo-1-phenyl-5-(3-(trifluoromethyl)benzamido)-4,5,6,7-tetrahydro-1H-pyrazolo[3,4-b]pyridin-3-yl)pent-2-enoic acid] | 200 to 1000 | 200 to 1000 | –
8 | CCN1C(=O)[C@@H](NC(=O)c2cccc(C(F)(F)F)c2)[C@@H](c2ccc(F)cc2)c2c(/C=C3/CCC(=O)N3)nn(-c3ccccc3)c21 (racemic) [Compound I-70, rac-N-((4R,5R)-7-ethyl-4-(4-fluorophenyl)-6-oxo-3-((Z)-(5-oxopyrrolidin-2-ylidene)methyl)-1-phenyl-4,5,6,7-tetrahydro-1H-pyrazolo[3,4-b]pyridin-5-yl)-3-(trifluoromethyl)benzamide] | 1000 to 3000 | 1000 to 3000 | –
9 | CCN1C(=O)[C@@H](NC(=O)c2cccc(C(F)(F)F)c2)[C@@H](c2ccc(F)cc2)c2c(CNC(=O)[C@@H](C)C#N)nn(-c3ccccc3)c21 (relative stereo) [Compound I-158, N-((4RS,5RS)-3-(((R*)-2-cyanopropanamido)methyl)-7-ethyl-4-(4-fluorophenyl)-6-oxo-1-phenyl-4,5,6,7-tetrahydro-1H-pyrazolo[3,4-b]pyridin-5-yl)-3-(trifluoromethyl)benzamide] | 200 to 1000 | 200 to 1000 | –
10 | CCN1C(=O)[C@@H](CC(=O)CC2CC2)[C@@H](C2CC2)c2c(C(=O)N3[C@H](C#N)C[C@H]4C[C@H]43)nn(C3CCOCC3)c21 [Compound I-466] | 1000 to 3000 | 1000 to 3000 | –
11 | CCN1C(=O)[C@@H](NC(=O)c2cncc(C(F)(F)F)n2)[C@@H](C2CC2)c2c(C(=O)N3[C@H](C#N)C[C@H]4C[C@H]43)nn(C3CCOCC3)c21 [Compound I-590] | 1000 to 3000 | 1000 to 3000 | –
12 | CCN1C(=O)[C@@H](NC(=O)c2ccc(F)c(F)c2OC)[C@@H](C2CC2)c2c(C(=O)N3[C@H](C#N)C[C@H]4C[C@H]43)nn(C3CCOCC3)c21 [Compound I-502] | 200 to 1000 | 1000 to 3000 | –
13 | C=C(C)S(=O)(=O)NCc1nn(-c2ccccc2)c2c1[C@H](c1ccc(F)cc1)[C@H](NC(=O)c1cccc(C(F)(F)F)c1)C(=O)N2CC (racemic) [Compound I-54, rac-N-((4R,5R)-7-ethyl-4-(4-fluorophenyl)-3-(((1-methylvinyl)sulfonamido)methyl)-6-oxo-1-phenyl-4,5,6,7-tetrahydro-1H-pyrazolo[3,4-b]pyridin-5-yl)-3-(trifluoromethyl)benzamide] | 200 to 1000 | 200 to 1000 | –
14 | CCN1C(=O)[C@H](NC(=O)c2cccc(C(F)(F)F)c2)[C@H](c2ccc(F)cc2)c2c([C@@H](C)N(C)C#N)nn(-c3ccccc3)c21 (relative stereo) [Compound I-79, N-((4R*,5R*)-7-ethyl-4-(4-fluorophenyl)-3-((R)-1-(N-methylcyanamido)ethyl)-6-oxo-1-phenyl-4,5,6,7-tetrahydro-1H-pyrazolo[3,4-b]pyridine-5-yl)-3-(trifluoromethyl)benzamide] | 1000 to 3000 | 1000 to 3000 | –
15 | CCN1C(=O)[C@@H](NC(=O)c2cccc(C(F)(F)F)c2)[C@@H](c2ccc(F)cc2)c2c([C@@H](C)N(C)C#N)nn(-c3ccccc3)c21 [Compound I-44] | ≤ 200 | 200 to 1000 | –
16 | CCN1C(=O)[C@@H](NC(=O)c2ccn(C(C)(C)C)n2)[C@@H](C2CC2)c2c(C(=O)N3[C@H](C#N)C[C@H]4C[C@H]43)nn(C3CCOCC3)c21 [Compound I-688] | ≤ 200 | 200 to 1000 | –
17 | CCN1C(=O)[C@@H](NC(=O)c2cccc(C(F)(F)F)c2)[C@@H](c2ccc(F)cc2)c2c(C/C=C/C(N)=O)nn(-c3ccccc3)c21 (racemic) [Compound I-46, rac-N-((4R,5R)-3-((E)-4-amino-4-oxobut-2-en-1-yl)-7-ethyl-4-(4-fluorophenyl)-6-oxo-1-phenyl-4,5,6,7-tetrahydro-1H-pyrazolo[3,4-b]pyridin-5-yl)-3-(trifluoromethyl)benzamide] | 1000 to 3000 | 1000 to 3000 | –
18 | CCN1C(=O)[C@@H](NC(=O)c2cc(S(C)(=O)=O)ccc2F)[C@@H](C2CC2)c2c(C(=O)N3[C@H](C#N)C[C@H]4C[C@H]43)nn(C3CCOCC3)c21 [Compound I-475] | 1000 to 3000 | 1000 to 3000 | –
19 | CCN1C(=O)[C@@H](NC(=O)c2cccc(C(F)(F)F)c2)[C@@H](c2ccc(F)cc2)c2c(CC/C=C/C(=O)NC)nn(-c3ccccc3)c21 (racemic) [Compound I-91] | 200 to 1000 | 200 to 1000 | –
20 | C[C@@H](NC#N)c1nn(-c2ccccc2)c2c1[C@H](c1ccc(F)cc1)[C@H](NC(=O)c1cccc(C(F)(F)F)c1)C(=O)N2CCOP(=O)(O)O [Compound I-162] | ≤ 200 | – | ≤ 200
21 | CCN1C(=O)[C@@H](NC(=O)CN2C(=O)CSc3ccccc32)[C@@H](C2CC2)c2c(C(=O)N3[C@H](C#N)C[C@H]4C[C@H]43)nn(C3CCOCC3)c21 [Compound I-510] | 1000 to 3000 | 1000 to 3000 | –
22 | CCN1C(=O)[C@@H](NC(=O)c2cccc(C#N)c2)[C@@H](C2CC2)c2c(C(=O)N3[C@H](C#N)C[C@H]4C[C@H]43)nn(C3CCOCC3)c21 [Compound I-698] | 200 to 1000 | 200 to 1000 | –
23 | CCN1C(=O)[C@H](NC(=O)c2cccc(C(F)(F)F)c2)[C@@H](c2ccc(F)cc2)c2c(CN(C)C#N)nn(-c3ccccc3)c21 (single isomer, unassigned) [Compound I-82] | 1000 to 3000 | 1000 to 3000 | –
24 | CCN1C(=O)[C@@H](NC(=O)c2cccc(C(F)(F)F)c2)[C@@H](c2ccc(F)cc2)c2c(CNC(=O)/C(C)=C/C(=O)OC)nn(-c3ccccc3)c21 (racemic) [Compound I-155] | 200 to 1000 | 1000 to 3000 | –
25 | CCN1C(=O)[C@@H](NC(=O)c2cccc(C(F)(F)F)c2)[C@@H](c2ccc(F)cc2)c2c(C(=O)N3CC[C@H](C#N)C3)nn(-c3ccccc3)c21 (mixture of isomers) [Compound I-137] | 200 to 1000 | 200 to 1000 | –
26 | C/C=C/S(=O)(=O)NCc1nn(-c2ccccc2)c2c1[C@H](c1ccc(F)cc1)[C@H](NC(=O)c1cccc(C(F)(F)F)c1)C(=O)N2CC (racemic) [Compound I-6] | ≤ 200 | 200 to 1000 | –
27 | CCN1C(=O)[C@@H](NC(=O)c2cccc(C(F)(F)F)c2)[C@@H](c2ccc(F)cc2)c2c(CNC(=O)C3(C#N)CCOCC3)nn(-c3ccccc3)c21 (racemic) [Compound I-22, rac-4-cyano-N-(((4R,5R)-7-ethyl-4-(4-fluorophenyl)-6-oxo-1-phenyl-5-(3-(trifluoromethyl)benzamido)-4,5,6,7-tetrahydro-1H-pyrazolo[3,4-b]pyridine-3-yl)methyl)tetrahydro-2H-pyran-4-carboxamide] | 1000 to 3000 | 1000 to 3000 | –
